Results: patent US20260232666A1, “COMPOSITIONS AND METHODS FOR INHIBITION OF RAS” (TheRas, Inc., priority 2023, published 2026)

How the values were obtained:
[1] = target: T1, Avi-KRAS G12C (1-169) GppNHp/RAF1 RBD-3×FLAG (52-151) (Homo sapiens, UniProt P01116, G12C); assay: Raf1 RBD-KRAS G12C-GppNHp disruption assay (protein:protein interaction HTRF); assay type: biochemical
T1 construct: Avi-KRAS G12C (1-169) GppNHp; Avi (N)
Outline: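 HTRF measuring RAF1 RBD binding to GppNHp-loaded KRAS G12C (50 nM) in Tris pH 7.5, 100 mM NaCl, 5 mM MgCl2, 10% DMSO. Compound, KRAS, RBD and detection reagents each added sequentially with 1 h room-temperature incubations; 10-point titration; excitation 320 nm, emission 615 nm; activity as % of DMSO; IC50 derived.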

pERK in NCI-H358 cells = assay: Cell-based pERK HTRF assay (pERK inhibition in H358 cells); details: 30 min incubation
Outline: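 NCI-H358 cells were seeded at 4×10^4 cells/well in RPMI/10% FBS, then treated next day for 30 min at 0.25% DMSO (9-point, 3-fold series from 75 μM). Lysates were read by HTRF (d2/Eu cryptate antibody pair, 615 nm emission) after 4–24 h at room temperature to give pERK IC50.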

T1 sequence (P01116 1-169 isoform P01116-2 G12C limits assumed): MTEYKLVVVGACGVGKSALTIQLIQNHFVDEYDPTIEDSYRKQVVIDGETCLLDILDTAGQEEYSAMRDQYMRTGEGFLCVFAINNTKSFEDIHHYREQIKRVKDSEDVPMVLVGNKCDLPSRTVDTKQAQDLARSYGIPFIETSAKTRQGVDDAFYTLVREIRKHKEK

IC50 [1] | IC50 (pERK in NCI-H358 cells; Homo sapiens, NCI-H358, 0.5 h) | IC50 (pERK in NCI-H358 cells) | Compound
< 500 nM |  | < 100 nM | C=CC(=O)N1CC[C@@H](N(CC)c2nc(OC[C@@H]3C[C@@H](F)CN3C)nc3c(F)c(-c4ccc(F)c5sc(N)c(C#N)c45)c(C(F)(F)F)cc23)[C@H]1C [Compound 52]
< 500 nM | < 100 nM |  | C=CC(=O)N1CC[C@@H](N(C)c2nc(OC[C@@H]3CCCN3C)nc3c(F)c(-c4ccc(F)c5sc(N)c(C#N)c45)c(Cl)cc23)[C@@H]1C [Compound 83]
< 500 nM | < 100 nM |  | C=CC(=O)N1CC[C@@H](N(C)c2nc(OC[C@@H]3C[C@@H](F)CN3C)nc3c(F)c(-c4ccc(F)c5sc(N)c(C#N)c45)c(C(F)(F)F)cc23)[C@H]1C [Compound 55]
< 500 nM | < 100 nM |  | C=CC(=O)N1CC[C@@H](N(C)c2nc(OC[C@@]34CCCN3C[C@H](F)C4)nc3cc(-c4ccc(F)c5sc(N)c(C#N)c45)c(C#N)cc23)[C@H]1CC [Compound 42]
500 to 5000 nM | 100 to 1000 nM |  | C=CC(=O)N1CC[C@@H](N(CC)c2nc(OC[C@@]34CCCN3C[C@H](F)C4)nc3c(F)c(-c4ccc(F)c5sc(N)c(C#N)c45)ccc23)[C@@H]1CC [Compound 50]
500 to 5000 nM | 100 to 1000 nM |  | C=CC(=O)N1CC[C@@H](N(CC)c2nc(OC[C@@]34CCCN3C[C@H](F)C4)nc3cc(-c4ccc(F)c5sc(N)c(C#N)c45)c(C#N)cc23)[C@@H]1CC [Compound 40]
< 500 nM | < 100 nM |  | C=CC(=O)N1CC[C@@H](N(C)c2nc(OC[C@@H]3CCCN3CC)nc3c(F)c(-c4ccc(F)c5sc(N)c(C#N)c45)c(Cl)cc23)[C@@H]1C [Compound 84]
< 500 nM | < 100 nM |  | C=CC(=O)N1CC[C@@H](N(C)c2nc(OC[C@@H]3C[C@@H](OC)CN3C)nc3c(F)c(-c4ccc(F)c5sc(N)c(C#N)c45)c(Cl)cc23)[C@H]1C [Compound 63, 4-(4-(((2R,3R)-1-acryloyl-2-methylpyrrolidin-3-yl)(methyl)amino)-6-chloro-8-fluoro-2-(((2S,4R)-4-methoxy-1-methylpyrrolidin-2-yl)methoxy)quinazolin-7-yl)-2-amino-7-fluorobenzo[b]thiophene-3-carbonitrile]
< 500 nM | < 100 nM |  | C=CC(=O)N1CC[C@@H](N(C)c2nc(OC[C@@H]3CC4(CC4)CN3CC)nc3c(F)c(-c4ccc(F)c5sc(N)c(C#N)c45)c(C(F)(F)F)cc23)[C@@H]1C [Compound 95]
< 500 nM |  | < 100 nM | C=CC(=O)N1CC[C@@H](N(C)c2nc(OC[C@@H]3CCCN3C)nc3c(F)c(-c4ccc(F)c5sc(N)c(C#N)c45)c(C(F)(F)F)cc23)[C@H]1C [Compound 67]
< 500 nM | < 100 nM |  | C=CC(=O)N1CC[C@@H](N(CC)c2nc(OC[C@@H]3CC4(CC4)CN3C)nc3c(F)c(-c4ccc(F)c5sc(N)c(C#N)c45)c(C(F)(F)F)cc23)[C@H]1C [Compound 65]
< 500 nM |  | < 100 nM | C=CC(=O)N1CC[C@@H](N(C)c2nc(OC[C@@H]3CCCN3C)nc3c(F)c(-c4ccc(F)c5sc(N)c(C#N)c45)c(Cl)cc23)[C@H]1C [Compound 59]
< 500 nM | < 100 nM |  | C=CC(=O)N1CC[C@@H](N(CC)c2nc(OC[C@@H]3C[C@@H](OC)CN3C)nc3c(F)c(-c4ccc(F)c5sc(N)c(C#N)c45)c(Cl)cc23)[C@H]1C [Compound 73]
< 500 nM | < 100 nM |  | C=CC(=O)N1CC[C@@H](N(CC)c2nc(OC[C@@]34CCCN3C[C@H](F)C4)nc3c(F)c(-c4ccc(F)c5sc(N)c(C#N)c45)c(Cl)cc23)[C@@H]1C [Compound 77]
< 500 nM | < 100 nM |  | C=CC(=O)N1CC[C@@H](N(CC)c2nc(OC[C@@]34CCCN3C[C@H](F)C4)nc3cc(-c4ccc(F)c5sc(N)c(C#N)c45)c(C#N)cc23)[C@@H]1C [Compound 56]
< 500 nM | < 100 nM |  | C=CC(=O)N1CC[C@@H](N(CC)c2nc(OC[C@@H]3CCCN3C)nc3c(F)c(-c4ccc(F)c5sc(N)c(C#N)c45)c(C(F)(F)F)cc23)[C@H]1C [Compound 66]
< 500 nM | < 100 nM |  | C=CC(=O)N1CCC(N(C)c2nc(OC[C@@]34CCCN3C[C@H](F)C4)nc3c(F)c(-c4ccc(F)c5sc(N)c(C#N)c45)c(C(F)(F)F)cc23)[C@H]1CC (some centres unmarked) [Compound 3]
< 500 nM | < 100 nM |  | C=CC(=O)N1CC[C@@H](N(C)c2nc(OC[C@@H]3CC4(CC4)CN3CC)nc3c(F)c(-c4ccc(F)c5sc(N)c(C#N)c45)c(Cl)cc23)[C@@H]1C [Compound 92]

IC50 [1] | IC50 (pERK in NCI-H358 cells; Homo sapiens, NCI-H358, 0.5 h) | IC50 (pERK in NCI-H358 cells) | Compound
< 500 nM | 100 to 1000 nM |  | C=CC(=O)N1CC[C@@H](N(CC)c2nc(OC[C@@]34CCCN3C[C@H](F)C4)nc3cc(-c4ccc(F)c5sc(N)c(C#N)c45)c(F)cc23)[C@H]1CC [Compound 76]
500 to 5000 nM | 100 to 1000 nM |  | C=CC(=O)N1CC[C@@H](N(CC)c2nc(OC[C@@]34CCCN3C[C@H](F)C4)nc3cc(-c4ccc(F)c5sc(N)c(C#N)c45)c(F)cc23)[C@@H]1CC [Compound 41]
< 500 nM | < 100 nM |  | C=CC(=O)N1CC[C@@H](N(C)c2nc(OC[C@@H]3C[C@@H](OC)CN3C)nc3c(F)c(-c4ccc(F)c5sc(N)c(C#N)c45)c(Cl)cc23)[C@@H]1C [Compound 79]
< 500 nM |  | < 100 nM | C=CC(=O)N1CC[C@@H](N(CC)c2nc(OC[C@@H]3CC4(CC4)CN3C)nc3c(F)c(-c4ccc(F)c5sc(N)c(C#N)c45)c(Cl)cc23)[C@H]1C [Compound 75]
500 to 5000 nM |  | 100 to 1000 nM | C=CC(=O)N1CC[C@@H](N(C)c2nc(OC[C@@]34CCCN3C[C@H](F)C4)nc3c(F)c(-c4ccc(F)c5sc(N)c(C#N)c45)c(Cl)cc23)[C@@H]1C (atropisomer, axis not shown) [Compound 69]
< 500 nM | < 100 nM |  | C=CC(=O)N1CC[C@@H](N(C)c2nc(OC[C@@H]3CC4(CC4)CN3CC)nc3c(F)c(-c4ccc(F)c5sc(N)c(C#N)c45)c(Cl)cc23)[C@H]1C [Compound 97]
500 to 5000 nM | 100 to 1000 nM |  | C=CC(=O)N1CC[C@@H](N(C)c2nc(OC[C@@H]3C[C@@H](F)CN3CC)nc3c(F)c(-c4ccc(F)c5sc(N)c(C#N)c45)c(Cl)cc23)[C@H]1C [Compound 98]
< 500 nM | < 100 nM |  | C=CC(=O)N1CC[C@@H](N(C)c2nc(OC[C@@]34CCCN3C[C@H](F)C4)nc3c(F)c(-c4ccc(F)c5oc(N)c(C#N)c45)c(C(F)(F)F)cc23)[C@H]1C [Compound 90]
500 to 5000 nM | 100 to 1000 nM |  | C=CC(=O)N1C[C@H]2C[C@@H]1CN2c1nc(OC[C@@]23CCCN2C[C@H](F)C3)nc2c(F)c(-c3ccc(F)c4sc(N)c(C#N)c34)c(C(F)(F)F)cc12 [Compound 37]
< 500 nM | < 100 nM |  | C=CC(=O)N1CC[C@@H](N(CC)c2nc(OC[C@@]34CCCN3C[C@H](F)C4)nc3c(F)c(-c4ccc(F)c5sc(N)c(C#N)c45)c(C(F)(F)F)cc23)[C@@H]1C [Compound 86]
< 500 nM | < 100 nM |  | C=CC(=O)N1CC[C@@H](N(C)c2nc(OC[C@@H]3C[C@@H](OC)CN3CC)nc3c(F)c(-c4ccc(F)c5sc(N)c(C#N)c45)c(Cl)cc23)[C@@H]1C [Compound 100]
< 500 nM | < 100 nM |  | C=CC(=O)N1CC[C@@H](N(CC)c2nc(OC[C@@]34CCCN3C[C@H](F)C4)nc3c(F)c(-c4ccc(F)c5sc(N)c(C#N)c45)c(C(F)(F)F)cc23)[C@H]1CC [Compound 39]
< 500 nM | < 100 nM |  | C=CC(=O)N1CC[C@@H](N(C)c2nc(OC[C@@]34CCCN3C[C@H](F)C4)nc3c(F)c(-c4ccc(F)c5sc(N)c(C#N)c45)c(Cl)cc23)[C@@H]1C (atropisomer, axis not shown) [Compound 68]
< 500 nM | < 100 nM |  | C=CC(=O)N1CC[C@@H](N(CC)c2nc(OC[C@@]34CCCN3C[C@H](F)C4)nc3c(F)c(-c4ccc(F)c5sc(N)c(C#N)c45)ccc23)[C@@H]1C [Compound 57]
< 500 nM | < 100 nM |  | C=CC(=O)N1CC[C@@H](N(C)c2nc(OC[C@@]34CCCN3C[C@H](F)C4)nc3c(F)c(-c4nc(N)cc(C)c4C(F)(F)F)c(Cl)cc23)[C@H]1C [Compound 78, 1-[(2R,3R)-3-[[7-[6-amino-4-methyl-3-(trifluoromethyl)-2-pyridyl]-6-chloro-8-fluoro-2-[[(2R,8S)-2-fluoro-1,2,3,5,6,7-hexahydropyrrolizin-8-yl]methoxy]quinazolin-4-yl]-methyl-amino]-2-methyl-pyrrolidin-1-yl]prop-2-en-1-one]
< 500 nM | < 100 nM |  | C=CC(=O)N1CC[C@@H](N(C)c2nc(OC[C@@H]3CC4(CC4)CN3C)nc3c(F)c(-c4ccc(F)c5sc(N)c(C#N)c45)c(Cl)cc23)[C@H]1C [Compound 64]
< 500 nM | < 100 nM |  | C=CC(=O)N1CC[C@@H](N(C)c2nc(OC[C@@H]3CCCN3CC)nc3c(F)c(-c4ccc(F)c5sc(N)c(C#N)c45)c(C(F)(F)F)cc23)[C@H]1C [Compound 88]

Compound | IC50 [1] | IC50 (pERK in NCI-H358 cells; Homo sapiens, NCI-H358, 0.5 h) | IC50 (pERK in NCI-H358 cells)
C=CC(=O)N1CC2CCC(C1)N2c1nc(OC[C@@]23CCCN2C[C@H](F)C3)nc2c(F)c(-c3ccc(F)c4sc(N)c(C#N)c34)c(C(F)(F)F)cc12 [Compound 49] | < 500 nM | < 100 nM | 
C=CC(=O)N1CC2CC(C1)N2c1nc(OC[C@@]23CCCN2C[C@H](F)C3)nc2c(F)c(-c3ccc(F)c4sc(N)c(C#N)c34)c(C(F)(F)F)cc12 [Compound 46] | 500 to 5000 nM | 100 to 1000 nM | 
